Assay results taken from patent US20130136811A1, “Compositions and Methods for Pain Reduction” (priority 2010, published 2013).
“And” between values parts separate entries of the source, which are not always exact repeats. Identical values can stand only once.

How the values were obtained:
[1] = system: primary cultures of mouse cortical neurons; assay: NMDAR-mediated excitotoxicity, LDH cell death assay; assay type: cell-based; conditions: for neuroprotective effect (% protection): NMDA 200 μM 5 minutes, glycine 10 μM, LDH 24 hours after
Protocol: Studies were carried out to determine whether application of Wogonin can prevent N-methyl-D-Aspartate receptor (NMDAR)-mediated excitotoxicity in primary neuronal cultures from mouse cortex in vitro. In particular, detailed dose/response curves of Wogonin applied together with and for the duration of application of NMDA were generated. NMDAR-induced cytotoxicity can lead to fulminant cell death, necrosis, or a delayed form of cell death (apoptosis). While necrosis leads to immediate cell lysis, apoptotic cell death develops over time and is distinguished by a number of criteria such as characteristic morphological changes and DNA fragmentation. The LDH assay was used for the determination of cell death. This assay assesses primary necrosis as well as secondary, necrotic cell death subsequent to apoptosis.
For these experiments, cytotoxicity assays were conducted in primary cultures of mouse cortical neurons after 10 days in vitro using an art-recognized assay systema (Sun X, Chan L N, Gong X, Sucher N J. N-methyl-D-Aspartate receptor antagonist activity in traditional Chinese stroke medicines. NeuroSignals, 2003; 12:31-38.) Cultured neurons were exposed to NMDA (200 μM; 5 minutes) and co-agonist glycine (10 μM) in the nominal absence of magnesium and the presence of increasing concentrations of Wogonin. Measurements were performed for each dose of Wogonin in triplicate in at least three independent experiments. Wogonin was added to the culture in three different ways: 1) before, concomitant with and after NMDA, 2) concomitant with and after NMDA and 3) after NMDA. Twenty-four hours after exposure to NMDA cell death is determined by colorimetric lactate dehydrogenase (LDH) assay.

[2] = system: mouse formalin pain model; assay: mouse formalin pain model (paw licking); assay type: in vivo; conditions: for Duration of Licking: 200 mg/kg, individual animals 01-08; for Area Under the Curve, Drug Treated: 200 mg/kg i.p.
Protocol: The formalin test for antinociceptive activity is described in numerous publications, e.g., Hunskaar, S. O. B. Fasmer, and K. Hole, J. Neurosci. Methods 14: 69-76 (1985). The formalin test is a chemically-induced tonic pain model in which biphasic changes of nociceptive behavior are assessed and spinal/supraspinal plasticity of nociception is considered as a molecular basis for neuropathic pain particularly during the second (late) phase of the test, during which most clinically used drugs against neuropathic pain are active. The formalin test is accepted as an art recognized model of persistent clinical pain.
The formalin test (Wheeler-Aceto H, Porreca F, Cowan A. The rat paw formalin test: comparison of noxious agents. Pain 1990; 40:229-38) involves injection of 0.5% formalin into the mouse hind paw. The injection elicits a distinct biphasic behavioral profile in response to the formalin injection characterized by licking of the affected paw, and the number of licks is measured as a proxy for perceived pain. The first (acute) phase corresponds to the direct stimulation of peripheral fibers, while the second (inflammatory) phase is caused by the release of inflammatory mediators from the damaged tissue and nerve endings. Thus, this model is ideally suited to test the efficacy of Wogonin against the acute and chronic hyper-responsive neuronal discharges following activation of peripheral nerve fibers.
The results of the formalin test are given both as raw data (“Response”) and in an aggregate, analyzed form (“Analysis”). In the Response section, each Trial involves sixteen animals, eight controls given an i.p. injection of vehicle and eight given Wogonin at a specified dose. The data recorded for each animal is the amount of time spent licking the affected hind paw in a two-minute period. These two-minute periods occur at five-minute intervals and continue for […]. […] From this plot, the area under the cure (AUC) is determined for each animal during both the acute and inflammatory stages. The AUC for each phase is shown in the analysis section of the data sheet for both control and Wogonin-treated animals. The AUC for each Wogonin-treated animal is compared to the average result from the control group, yielding an average percent of control (reported with the SEM and p value). Significant reductions in this number indicate a reduction in licking, and, presumably, a reduction of perceived pain.
Male Swiss Webster NIH mice (20-30 g; Harlan, San Diego, Calif.) were used in the experiments described herein. Food was withdrawn on the day of experiment. Mice were placed in Plexiglass jars for at least 1 hour to accommodate to the environment. Following the accommodation period, mice were weighed and given Wogonin administered intraperitoneal (i.p.) or the appropriate volume of vehicle (10% Tween-80). Fifteen minutes after the i.p. dosing, mice were injected with formalin (20 μL of 5% formaldehyde solution in saline) into the dorsal surface of the right hind paw. Mice were transferred to the Plexiglass jars and monitored for the amount of time spent licking or biting the injected paw. Periods of licking and biting were recorded in 5 minute intervals for 40 minutes after the formalin injection. All experiments were done in a blinded manner. The early phase (acute) of the formalin response is measured as licking/biting between 0-10 minutes, and the late phase (inflammatory) is measured from 10-40 minutes. Differences between vehicle and Wogonin-treated groups are analyzed by one-way analysis of variance (ANOVA). A P value <0.05 is considered significant. Activity in blocking the acute and second phase of formalin-induced paw-licking activity is indicative that compounds are efficacious for acute and chronic pain. A significant response to both the acute and the inflammatory phases of the test was observed.

For COc1c(O)cc(O)c2c(=O)cc(-c3ccccc3)oc12 [Wogonin, 5,7-dihydroxy-8-methoxyflavone], the “neuroprotective effect (% protection)” value ([1]; 10^−4 M Wogonin) was greater than 75%, the “neuroprotective effect (% protection)” value ([1]; 10^−9 M Wogonin) was 0% and the IC50 ([1]; Cortical neurone, mouse cortical neurons, LDH assay, read-out: IC50, inhibition of neuronal death on exposure to N-methyl-D-aspartate) was 2000 nM. For the same molecule, the “Duration of Licking” value ([2]; 0 mm) was 0.00 sec (3×) and 35.48 sec and 21.75 sec and 53.96 sec and 44.26 sec and 32.29 sec, the “Duration of Licking” value ([2]; 5 min) was 0.00 s and the “Duration of Licking” value ([2]; 10 min) was 0.00 s. The “Duration of Licking” value ([2]; 20 min) was 0.00 sec (7×) and 16.00 sec, the “Duration of Licking” value ([2]; 25 min) was 0.00 sec (5×) and 3.89 sec and 20.61 sec and 10.96 sec and the “Duration of Licking” value ([2]; 30 min) was 0.00 sec (4×) and 29.12 sec and 55.07 sec and 2.95 sec and 37.69 sec. The “Duration of Licking” value ([2]; 35 min) was 0.00 sec (6×) and 21.24 sec and 12.73 sec, the “Duration of Licking” value ([2]; 40 min) was 0.00 sec (6×) and 20.18 sec and 27.36 sec and the “Area Under the Curve, Drug Treated” value ([2]; Acute phase) was 58.7. For the same molecule, the “Area Under the Curve, Drug Treated” value ([2]; Inflammatory phase) was 146.3 and the overt toxicity ([2]; mouse models) was “Overt toxicity was not seen”.
